From US20240398814A1, “KRAS INHIBITOR AND HDAC INHIBITOR COMBINATION FOR THE TREATMENT OF CANCER” (Northwestern University, priority 2023, published 2024)

Legend:
[1] = tested on: human KRAS, LKB1 mutant lung cancer cells; test: FGFR1 resistance mechanism in human KRAS, LKB1 mutant lung cancer cells; format: cell-based; details: 9 days of trametinib treatment, entinostat treatment days 3-9 (6 days total)
KL LJE1 cells [2] = test: qRT-PCR of chemokine (HRCG) gene expression in KL LJE1 cells; format: cell-based, mouse
Procedure: (§1) All cell lines were incubated at 37° C. and were maintained in an atmosphere containing 5% CO2. Cells were tested for Mycoplasma (Lonza) using manufacturer's conditions and were deemed negative. Cells were grown in Dulbecco's modified Eagles medium (DMEM) plus 10% fetal bovine serum (Gibco) and were continuously maintained under antibiotic selection for stable cell lines. Proliferation assays were performed by plating 2×10^3 cells per well of a 6-well plate, and cells were counted 5 days post-plating. Drug treatments were carried out using the following doses: entinostat 1 uM or 2 uM, RGFP966 10uM, TSA 0.5 uM, BRD3308 5 uM, trametinib 5 nM, 10 nM, and 25 nM, and MRTX1133 10 nM, 25 nM, and 50 nM, as indicated for the indicated treatment lengths. Media was changed and fresh drug added every 2 days.
(§2) mRNA was prepared using the Quick-RNA Miniprep kit (Zymo Research), including DNase treatment. cDNA was synthesized from 2 μg of RNA using SuperScript III (Life Technologies), and qPCR was carried out with diluted cDNA, appropriate primers, and SYBR Green PCR master mix (ThermoFisher Scientific) using a C1000 Thermal Cycler (BioRad). Relative mRNA levels were calculated using the delta Ct method, using Tbp as an internal control.

KL LJE1 cells [3] = test: Western blot and qRT-PCR of FGFR1, NKX2-1 and ERK phosphorylation in drug-treated KL LJE1 cells; format: cell-based, mouse; details: 13 days
Procedure: as §1, §2
(§3) Protein lysates in CST buffer (20 mM Tris pH 7.5, 150 mM NaCl, 1% Triton X-100, 50 mM NaF, 1 mM EDTA, 1 mM EGTA, 2.5 mM PyroPhosphate, 2 mM beta-glycerol-phosphate, 1 mM orthovanadate, 0.01 mM Calyculan A) with protease inhibitors were equilibrated for protein levels using a BCA protein assay kit (Pierce), resolved on 8% SDS-PAGE gels, and transferred to membrane. Membranes were blocked in milk, incubated o/n at 4C in diluted primary antibody, washed with TBS-T, incubated 1 hr in secondary antibody diluted in TBS-T plus milk, washed in TBS-T, and developed using SuperSignal ECL. Secondary antibodies: anti-rabbit (Millipore AP132P) and anti-mouse (Millipore AP124P). Nuclear fractions were isolated using a NE-PER nuclear and cytoplasmic extraction kit (Thermofisher) under manufacturers conditions.

KL NSCLC GEMM = test: In vivo entinostat and trametinib treatment, 42 days, tumor burden; parameters: species or system mouse; details: endpoint after 42 days; entinostat 10 mg/kg, trametinib 1 mg/kg, oral gavage
Procedure: Bioluminescent imaging was performed biweekly using an IVIS Spectrum (Caliper Life Sciences) using Living Image software (Perkin Elmer). Mice were injected intraperitoneally with 150 mg/kg D-luciferin (Caliper Life Sciences), anesthetized with isoflurane and imaged both ventrally and dorsally 10 minutes post luciferin injection. The total lung photon flux for each animal is calculated by the combination of ventral and dorsal photon flux calculated within a region of interest (ROI) encompassing the thorax.
Mice were intratracheally intubated with Lentivirus expressing Cre recombinase to initiate tumorigenesis and imaged […] starting 4 weeks post-Cre. Treatment was initiated at day 34 post-Cre (FIG. 5). In vivo treatment doses were selected based on publications (76-79). […]
Total lung tumor burden was quantitated from H&E sections using Inform v2.1 image analysis software (Cambridge Research and Instrumentation) in a non-biased manner. […] The quantitation data from this analysis was then used to calculate the percentage of tumor area as normalized to total lung area (tumor area+normal lung area).
Quantitation of each individual tumor was measured from H&E sections using morphometric analysis in Panoramic viewer software (Perkin Elmer), which calculates the size of each identified tumor by area in squared microns. […]

NF-kB/p65 protein = test: Western blot of p65 nuclear localisation and K310 acetylation in KL LJE1 cells; format: cell-based, mouse
Procedure: as §3
p65-expressing DNA constructs RelA-Flag (22) (Addgene 20012) and GFP-RelA (21) (Addgene 23255) were transiently transfected into KL LJE1 cells using Lipofectamine 2000 (Thermo Fisher Scientific) according to the manufacturer's protocol. Cells were treated with drug as indicated 24 hours after transfection.

H460 cells = test: qRT-PCR of chemokine gene expression in H460 cells; format: cell-based, human; details: 1 uM entinostat 4 days, 5 uM BRD3308 4 days
Procedure: as §1, §2

With Nc1ccccc1NC(=O)c1ccc(CNC(=O)OCc2cccnc2)cc1 [entinostat] the “impact of Trametinib on the FGFR1 resistance mechanism” value [1] was “reverses the impact of Trametinib on the FGFR1 resistance mechanism”, the “HRCG gene expression response in cells expressing p65 WT or p65 K310A” value (KL LJE1 cells [2]; 3 days, 1 uM entinostat) was “K310 only significantly altered the gene expression response of Cc120, Cxc15, and Cc15” and the “gene expression induction in NT versus p65 KO cells” value (KL LJE1 cells [2]; 3 days, 1 uM entinostat or 5 uM BRD3308) was “p65 facilitates maximal gene expression induction”. For the same compound, the “chemokine (SASP) gene expression” value (KL LJE1 cells [2]; 72 hr, 2 uM entinostat or 10uM RGFP966) was “robust induction of gene expression”, the FGFR1 protein (KL LJE1 cells [3]; Western blot, 10 nM trametinib, 1 uM entinostat) was “neither FGFR1 protein or mRNA levels were impacted” and the “FGFR1 mRNA levels” value (KL LJE1 cells [3]; qRT-PCR, 1 uM entinostat alone) was “neither FGFR1 protein or mRNA levels were impacted”. The “tumor burden quantitated from H&E-stained sections (tumor area as percentage of total lung area)” value (KL NSCLC GEMM) was “neither entinostat nor trametinib alone impacted tumor burden”, the “acetylation of wildtype p65 at K310 (versus K310A mutant)” value (NF-kB/p65 protein; 5 hours, 1 uM entinostat or 5 uM BRD3308) was “induce acetylation of wildtype p65 at K310” and the “K310 acetylation on transfected p65” value (NF-kB/p65 protein; Flag-p65 or GFP-p65, 6 hr, 2 uM entinostat) was “increased K310 acetylation on p65”. For the same compound, the “quantity of p65 protein in the nuclear fraction” value (NF-kB/p65 protein; Western blot, 6 hr, 2 uM entinostat, 10uM RGFP966, 0.5 uM TSA) was “increased the quantity of p65 protein in the nuclear fraction” and the “chemokine (SASP) gene expression” value (H460 cells) was “induced the expression of these genes”.
